Results on 9 molecules are retold here after patent US20050124562A1, “Bis-quinazoline compounds for the treatment of bacterial infections” (priority 2003, published 2005).

Holding throughout (assay type): cell-based
One experiment deals with H. influenzae. The experiment is described as follows: Broth microdilution MIC (NCCLS), H. influenzae. Particulars: Haemophilus influenzae; some strains of H. influenzae. Here is the method: (§1) Representative bis-quinazolines were tested for antibacterial activity using the […] microdilution method to determine their minimum inhibitory concentrations (MICs). All compounds were tested using standard methods in accordance with NCCLS guidelines (National Committee for Clinical Laboratory Standards. 2003. Methods for dilution antimicrobial susceptibility testing for bacteria that grow aerobically. Approved Standard M-7 A-6, NCCLS, Wayne, Pa.). The bacterial strains used in the susceptibility tests were obtained from the American Type Culture Collection (ATCC) and included resistant phenotypes such as oxacillin-resistant S. aureus (ORSA) and vancomycin-resistant enterococci (VRE). The minimum bactericidal concentrations (MBCs) were determined for selected organisms. The effect of protein binding on the antibacterial activity of representative bis-quinazolines were determined by conducting MIC tests in the presence of human serum.

Experiment [1] has as its system efflux mutants of E. coli. As to the kind of experiment: Broth microdilution MIC (NCCLS), E. coli efflux mutants. The settings on record: Escherichia coli, read-out: MICs. Here is the method:
as §1

For experiment [2], the system named is S. aureus, E. faecalis, S. pyogenes and S. pneumoniae. As to the kind of experiment: Broth microdilution MIC (NCCLS), gram-positive strains. The settings on record: range against some strains of S. aureus, E. faecalis, S. pyogenes and S. pneumoniae; read-out: MIC. An outline of the steps:
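MICs by broth microdilution per NCCLS M-7 A-6 against ATCC strains, including ORSA and VRE; MBCs determined for selected organisms. Serum effect assessed by repeating MIC tests with human serum present.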

For experiment [3], the system named is efflux mutants of P. aeruginosa. As to the kind of experiment: Broth microdilution MIC (NCCLS), P. aeruginosa efflux mutants. Particulars: Pseudomonas aeruginosa, read-out: MICs. Here is the method:
as §1

The next experiment deals with M. catarrhalis. As to the kind of experiment: Broth microdilution MIC (NCCLS), M. catarrhalis. Particulars: Moraxella catarrhalis; some strains of M. catarrhalis; read-out: MIC range. As to the method:
as §1

Structures are written as SMILES.

Regarding `COCCOc1ccc2nc(Nc3nc(O)c4c(OC)cccc4n3)nc(C)c2c1.O=C(O)C(F)(F)F` [Example 88, 5-Methoxy-2-[6-(2-methoxy-ethoxy)-4-methyl-quinazolin-2-ylamino]-quinazolin-4-ol trifluoroacetate salt], the MIC in the experiment with H. influenzae is 16 to 32 µg/mL; in experiment [1] it was 16 to 64 µg/mL; in experiment [2], 0.06 to 16 µg/mL; in experiment [3], 64 µg/mL; in the experiment on M. catarrhalis it was 2 to 64 µg/mL.

For `COCCOc1cc2nc(Nc3nc(O)c4cccc(OC)c4n3)nc(C)c2cc1OCCOC.O=C(O)C(F)(F)F` [Example 89, 2-[6,7-Bis-(2-methoxy-ethoxy)-4-methyl-quinazolin-2-ylamino]-8-methoxy-quinazolin-4-ol trifluoroacetate salt], the MIC against H. influenzae is 16 to 32 µg/mL; in experiment [1], 16 to 64 µg/mL; in experiment [2] it was 0.06 to 16 µg/mL; in experiment [3], 64 µg/mL; in the experiment with M. catarrhalis it was 2 to 64 µg/mL.

On to `COc1cc2nc(Nc3nc(O)c4c(OC)cccc4n3)nc(CF)c2cc1OC.O=C(O)C(F)(F)F` [Example 90, 2-(4-Fluoromethyl-6,7-dimethoxy-quinazolin-2-ylamino)-5-methoxy-quinazolin-4-ol trifluoroacetate salt], for which the MIC with H. influenzae is 16 to 32 µg/mL; in experiment [1], 16 to 64 µg/mL; in experiment [2], 0.06 to 16 µg/mL; in experiment [3], 64 µg/mL; in the experiment with M. catarrhalis it was 2 to 64 µg/mL.

For the molecule `COc1cccc2c(O)nc(Nc3nc(C)c4c(OC)ccc(C)c4n3)nc12.O=C(O)C(F)(F)F` [Example 91, 8-Methoxy-2-(5-methoxy-4,8-dimethyl-quinazolin-2-ylamino)-quinazolin-4-ol trifluoroacetate salt], the MIC is 16 to 32 µg/mL with H. influenzae; 16 to 64 µg/mL in experiment [1]; 0.06 to 16 µg/mL in experiment [2]; 64 µg/mL in experiment [3]; 2 to 64 µg/mL in the experiment with M. catarrhalis.

`COc1cc2c(C)nc(Nc3nc(O)c4c(OC)cccc4n3)nc2cc1F.O=C(O)C(F)(F)F` [Example 94, 2-(7-Fluoro-6-methoxy-4-methyl-quinazolin-2-ylamino)-5-methoxy-quinazolin-4-ol trifluoroacetate salt]: the MIC is 16 to 32 µg/mL against H. influenzae; 16 to 64 µg/mL in experiment [1]; 0.06 to 16 µg/mL in experiment [2]; 64 µg/mL in experiment [3]; 2 to 64 µg/mL with M. catarrhalis.

Regarding `COc1ccc(OC)c2c(O)nc(Nc3nc(C)c4ccc5c(c4n3)OCCO5)nc12.O=C(O)C(F)(F)F` [Example 95, 5,8-Dimethoxy-2-(8-methyl-2,3-dihydro-1,4-dioxa-5,7-diaza-phenanthren-6-ylamino)-quinazolin-4-ol trifluoroacetate salt], the MIC is 16 to 32 µg/mL against H. influenzae; 16 to 64 µg/mL in experiment [1]; 0.06 to 16 µg/mL in experiment [2]; 64 µg/mL in experiment [3]; 2 to 64 µg/mL in the experiment on M. catarrhalis.

For the molecule `COc1cc2nc(Nc3nc(O)c4cccc(F)c4n3)nc(C)c2cc1OC.O=C(O)C(F)(F)F` [Example 96, 2-(6,7-Dimethoxy-4-methyl-quinazolin-2-ylamino)-8-fluoro-quinazolin-4-ol trifluoroacetate salt], the MIC is 16 to 32 µg/mL with H. influenzae; 16 to 64 µg/mL in experiment [1]; 0.06 to 16 µg/mL in experiment [2]; 64 µg/mL in experiment [3]; 2 to 64 µg/mL with M. catarrhalis.

On to `CCOc1cccc2c(O)nc(Nc3nc(C)c4cc(OC)c(OC)cc4n3)nc12.O=C(O)C(F)(F)F` [Example 97, 2-(6,7-Dimethoxy-4-methyl-quinazolin-2-ylamino)-8-ethoxy-quinazolin-4-ol trifluoroacetate salt], for which the MIC was 16 to 32 µg/mL against H. influenzae; 16 to 64 µg/mL in experiment [1]; 0.06 to 16 µg/mL in experiment [2]; 64 µg/mL in experiment [3]; 2 to 64 µg/mL in the experiment on M. catarrhalis.

In the case of `COc1cc(OC)c2nc(Nc3nc(O)c4cccc(F)c4n3)nc(C)c2c1.O=C(O)C(F)(F)F` [Example 98, 2-(6,8-Dimethoxy-4-methyl-quinazolin-2-ylamino)-8-fluoro-quinazolin-4-ol trifluoroacetate salt], the MIC is 16 to 32 µg/mL in the experiment on H. influenzae; 16 to 64 µg/mL in experiment [1]; 0.06 to 16 µg/mL in experiment [2]; 64 µg/mL in experiment [3]; 2 to 64 µg/mL with M. catarrhalis.
